Measured values from patent US20250228835A1, “PYRIDINYLOXYPYRIDINES AND RELATED COMPOUNDS AND THEIR USE IN TREATING MEDICAL CONDITIONS” (Rectify Pharmaceuticals, Inc., priority 2024, published 2025).
pEC50: −log10 of the molar value.

Columns and labels:
Assay type in all cases: cell-based
ABCC6 WT = molecular target: T1, ABCC6 WT (Homo sapiens, UniProt O95255); test: ABCC6 WT assay: HiBit protein expression; settings: HEK-293 cells transiently expressing HiBit-tagged ABCC6 WT; 24 h treatment; top concentration 20 μM; read-out: ABCC6 WT EC50, Emax
T1 construct: expressed in transfected cells; host or cells: HEK-293 (transient, Lipofectamine 2000)
T1 sequence (O95255 whole entry): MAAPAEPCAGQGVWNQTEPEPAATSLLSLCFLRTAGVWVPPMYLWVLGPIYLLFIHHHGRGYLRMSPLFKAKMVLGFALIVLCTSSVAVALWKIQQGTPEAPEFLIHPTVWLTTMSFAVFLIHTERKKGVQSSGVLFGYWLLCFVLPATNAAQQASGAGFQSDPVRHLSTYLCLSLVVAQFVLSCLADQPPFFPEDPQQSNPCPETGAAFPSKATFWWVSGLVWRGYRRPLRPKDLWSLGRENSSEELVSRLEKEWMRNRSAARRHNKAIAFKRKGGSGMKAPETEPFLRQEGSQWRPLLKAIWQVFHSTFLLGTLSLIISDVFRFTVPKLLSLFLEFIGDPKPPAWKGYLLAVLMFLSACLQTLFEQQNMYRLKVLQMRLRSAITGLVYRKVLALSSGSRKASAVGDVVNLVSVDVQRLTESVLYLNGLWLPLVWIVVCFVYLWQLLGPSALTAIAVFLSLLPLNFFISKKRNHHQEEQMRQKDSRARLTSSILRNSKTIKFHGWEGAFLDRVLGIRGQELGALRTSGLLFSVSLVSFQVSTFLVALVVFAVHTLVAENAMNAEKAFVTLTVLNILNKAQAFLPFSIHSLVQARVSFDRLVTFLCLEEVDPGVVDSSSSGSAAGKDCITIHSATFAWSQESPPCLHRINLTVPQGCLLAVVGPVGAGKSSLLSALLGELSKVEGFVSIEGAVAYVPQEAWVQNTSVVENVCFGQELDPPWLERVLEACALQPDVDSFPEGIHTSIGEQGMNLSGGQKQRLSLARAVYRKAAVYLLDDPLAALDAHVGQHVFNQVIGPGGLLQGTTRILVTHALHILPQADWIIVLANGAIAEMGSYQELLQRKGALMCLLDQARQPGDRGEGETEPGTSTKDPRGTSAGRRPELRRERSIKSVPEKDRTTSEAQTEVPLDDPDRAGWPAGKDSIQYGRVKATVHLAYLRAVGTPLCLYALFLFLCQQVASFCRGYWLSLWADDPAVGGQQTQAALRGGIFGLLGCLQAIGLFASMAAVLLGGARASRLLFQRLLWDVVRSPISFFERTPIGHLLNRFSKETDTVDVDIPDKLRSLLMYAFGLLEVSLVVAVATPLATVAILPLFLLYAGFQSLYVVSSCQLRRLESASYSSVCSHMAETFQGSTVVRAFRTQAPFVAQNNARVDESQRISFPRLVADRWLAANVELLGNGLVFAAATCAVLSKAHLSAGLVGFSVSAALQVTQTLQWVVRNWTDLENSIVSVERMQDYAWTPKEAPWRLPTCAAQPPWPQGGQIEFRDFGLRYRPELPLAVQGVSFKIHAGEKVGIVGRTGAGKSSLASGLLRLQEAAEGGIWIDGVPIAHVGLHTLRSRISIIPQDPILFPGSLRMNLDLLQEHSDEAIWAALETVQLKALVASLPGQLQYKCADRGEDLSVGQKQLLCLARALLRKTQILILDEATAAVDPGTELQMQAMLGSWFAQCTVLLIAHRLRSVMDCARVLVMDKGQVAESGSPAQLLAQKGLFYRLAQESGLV
Excerpt: To assess activity against ABCC6, compounds were screened in an assay measuring protein expression, using cells transfected with cDNA encoding HiBit-tagged ABCC6 wild-type.
Described here is an assay for measuring the expression of the wild type of human ABCC6 (henceforth referred to as ABCC6 WT) and the use of this assay to measure the efficacy of compounds to increase the expression of ABCC6 WT. The assay was designed to characterize the efficacy and potency of compounds to increase the expression of ABCC6 WT by calculating an Emax and EC50 value. HEK-293 cells transiently expressing ABCC6 WT (HEK-293/ACC6 WT) were used for this assay and were cultured at 37° C. (5% CO2, humidified) in Dulbecco's Modified Eagle Medium (DMEM, Gibco product #11965-092) supplemented with 10% fetal bovine serum. For the assay, HEK-293 cells were transfected with […]/10 cm plate of cDNA encoding HiBit-tagged ABCC6 wild-type using Lipofectamine 2000 (Thermo Fisher, product #11668019). Twenty-four hours after transfection, the HEK-293/ACC6 WT cells were seeded in white/opaque 384-well plates (PerkinElmer, cat. No. 6007688) at 10,000 cells/well in 20 μl growth medium and allowed to settle for 4 hours at 37° C. (5% CO2, humidified). Compound serial dilutions are prepared in growth medium as ten times (10×) the final concentration and using a dilution factor of 2. After the four-hour incubation period, 2.2 μL of the 10× dilutions are transferred to the assay plate.
Dose response curves include ten doses with the top final concentration at 20 μM in 0.15% DMSO. Liquid handling is performed with an Integra mini96-tip head (INTEGRA). After addition of compound treatment, cells are incubated for 24 hours at 37° C. (5% CO2, humidified). After the 24-hour treatment, plates are allowed to equilibrate for 15 minutes at room temperature. Using Integra mini-96, 20 μl of HiBit lytic assay reagent (Promega, product #N3040), which is prepared according to manufacturer's instructions, is added to each well. The plates are rotated at room temperature for 10 minutes and luminescent signal is acquired using an EnVision Multimode Plate Reader (PerkinElmer).
Results are presented below in Table 4 for ABCC6 WT.

ABCB4 WT = molecular target: T2, ABCB4 WT (Homo sapiens, UniProt P21439); test: ABCB4 WT assay: HiBit protein expression; settings: HEK-293 cells stably expressing HiBit-tagged ABCB4 WT; 24 h treatment; top concentration 30 μM; read-out: ABCB4 WT EC50, Emax
T2 construct: expressed in transfected cells
T2 sequence (P21439 whole entry): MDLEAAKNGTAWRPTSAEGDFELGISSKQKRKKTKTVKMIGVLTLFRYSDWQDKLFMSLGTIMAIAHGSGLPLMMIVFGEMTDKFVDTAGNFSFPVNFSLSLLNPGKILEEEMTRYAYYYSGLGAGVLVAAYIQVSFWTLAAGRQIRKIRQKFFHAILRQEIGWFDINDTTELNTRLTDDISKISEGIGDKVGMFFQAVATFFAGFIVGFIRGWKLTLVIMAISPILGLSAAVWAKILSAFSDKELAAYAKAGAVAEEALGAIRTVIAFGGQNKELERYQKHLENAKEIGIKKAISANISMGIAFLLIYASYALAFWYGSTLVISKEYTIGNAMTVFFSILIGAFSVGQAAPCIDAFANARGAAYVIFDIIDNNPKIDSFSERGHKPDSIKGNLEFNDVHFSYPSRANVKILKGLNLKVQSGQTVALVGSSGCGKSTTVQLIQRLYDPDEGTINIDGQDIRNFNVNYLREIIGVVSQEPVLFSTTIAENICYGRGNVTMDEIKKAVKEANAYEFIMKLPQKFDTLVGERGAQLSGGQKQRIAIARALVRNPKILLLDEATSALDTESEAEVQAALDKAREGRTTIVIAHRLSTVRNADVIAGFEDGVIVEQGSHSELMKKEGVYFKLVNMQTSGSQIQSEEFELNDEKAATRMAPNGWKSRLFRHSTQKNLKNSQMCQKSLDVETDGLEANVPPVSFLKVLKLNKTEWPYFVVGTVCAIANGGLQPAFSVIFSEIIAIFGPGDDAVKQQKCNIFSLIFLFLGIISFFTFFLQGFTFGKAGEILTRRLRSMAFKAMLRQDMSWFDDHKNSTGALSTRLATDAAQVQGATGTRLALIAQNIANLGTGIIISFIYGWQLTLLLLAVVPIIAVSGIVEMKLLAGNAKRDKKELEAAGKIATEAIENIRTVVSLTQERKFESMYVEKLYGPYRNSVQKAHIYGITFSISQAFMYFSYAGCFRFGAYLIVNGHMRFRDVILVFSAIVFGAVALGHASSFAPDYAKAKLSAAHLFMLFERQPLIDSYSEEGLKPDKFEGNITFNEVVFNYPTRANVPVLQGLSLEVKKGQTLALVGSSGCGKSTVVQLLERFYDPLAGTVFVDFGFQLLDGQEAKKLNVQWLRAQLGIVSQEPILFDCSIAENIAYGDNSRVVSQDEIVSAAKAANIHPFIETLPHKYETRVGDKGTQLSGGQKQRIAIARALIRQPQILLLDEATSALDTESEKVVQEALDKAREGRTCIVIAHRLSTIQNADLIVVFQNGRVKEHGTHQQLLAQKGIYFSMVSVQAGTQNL
Excerpt: To assess activity against ABCB4, compounds were screened in an assay measuring protein expression, using cells transfected with cDNA encoding HiBit-tagged ABCB4 wild-type.
Described here is an assay for measuring the expression of the wild type of human ABCB4 (henceforth referred to as ABCB4 WT) and the use of this assay to measure the efficacy of compounds to increase the expression of ABCB4 WT. The assay was designed to characterize the efficacy and potency of compounds to increase the expression of ABCB4 WT by calculating an Emax and EC50 value. HEK-293 cells stably expressing ABCB4 WT (HEK-293/ABCB4 WT) were used for this assay and were maintained at 37° C. (5% CO2, humidified) in Dulbecco's Modified Eagle Medium (DMEM, Gibco product #12100) supplemented with 10% fetal bovine serum (Biosera product #FB-1058/500), 1% PenStrep (HDB product #15140-122), and 0.5 mg/mL puromycin (Gibco product #A11138-03). For the assay, the HEK-293/ABCB4 WT cells were seeded in white/opaque 384-well plates (Corning product #3570) at 10,000 cells/well in 20 μl growth medium and allowed to settle for 4 hours at 37° C. (5% CO2, humidified). Compound serial dilutions are prepared in DMSO as three hundred times (333×) the final concentration and using a dilution factor of 3 using Bravo (Agilent). After the four-hour incubation period, 60 nL of DMSO solutions are transferred to the assay plate.
(§1) Dose response curves include eleven doses with the top final concentration at 30 μM in 0.3% DMSO. Liquid handling is performed with ECHO 550 Acoustic Liquid Handler (Labcyte). After addition of compound treatment, cells are incubated for 24 hours at 37° C. (5% CO2, humidified). After the 24-hour treatment, plates are allowed to equilibrate to room temperature for 10 minutes. Using Dragonfly Automated Liquid Handler (TTP LabTech), 20 μl of HiBit lytic assay reagent (Promega, product #N3040), which is prepared according to manufacturer's instructions, is added to each well. The plates are rotated at room temperature for 2 minutes and incubated for 1 hour at 25° C. before luminescent signal is acquired using an EnVision Multimode Plate Reader (PerkinElmer).
Results are presented below in Table 5 for ABCB4 WT.

ABCA4 P1380L = molecular target: T3, ABCA4 P1380L (Homo sapiens, UniProt P78363, P1380L); test: A4 correction dose-response assay: ABCA4 P1380L HiBit protein expression; settings: HEK-293 cells stably expressing HiBit-tagged ABCA4 P1380L; 24 h treatment; top concentration 30 μM; read-out: ABCA4 P1380L EC50, Emax
T3 construct: expressed in transfected cells
T3 sequence (P78363 whole entry P1380L): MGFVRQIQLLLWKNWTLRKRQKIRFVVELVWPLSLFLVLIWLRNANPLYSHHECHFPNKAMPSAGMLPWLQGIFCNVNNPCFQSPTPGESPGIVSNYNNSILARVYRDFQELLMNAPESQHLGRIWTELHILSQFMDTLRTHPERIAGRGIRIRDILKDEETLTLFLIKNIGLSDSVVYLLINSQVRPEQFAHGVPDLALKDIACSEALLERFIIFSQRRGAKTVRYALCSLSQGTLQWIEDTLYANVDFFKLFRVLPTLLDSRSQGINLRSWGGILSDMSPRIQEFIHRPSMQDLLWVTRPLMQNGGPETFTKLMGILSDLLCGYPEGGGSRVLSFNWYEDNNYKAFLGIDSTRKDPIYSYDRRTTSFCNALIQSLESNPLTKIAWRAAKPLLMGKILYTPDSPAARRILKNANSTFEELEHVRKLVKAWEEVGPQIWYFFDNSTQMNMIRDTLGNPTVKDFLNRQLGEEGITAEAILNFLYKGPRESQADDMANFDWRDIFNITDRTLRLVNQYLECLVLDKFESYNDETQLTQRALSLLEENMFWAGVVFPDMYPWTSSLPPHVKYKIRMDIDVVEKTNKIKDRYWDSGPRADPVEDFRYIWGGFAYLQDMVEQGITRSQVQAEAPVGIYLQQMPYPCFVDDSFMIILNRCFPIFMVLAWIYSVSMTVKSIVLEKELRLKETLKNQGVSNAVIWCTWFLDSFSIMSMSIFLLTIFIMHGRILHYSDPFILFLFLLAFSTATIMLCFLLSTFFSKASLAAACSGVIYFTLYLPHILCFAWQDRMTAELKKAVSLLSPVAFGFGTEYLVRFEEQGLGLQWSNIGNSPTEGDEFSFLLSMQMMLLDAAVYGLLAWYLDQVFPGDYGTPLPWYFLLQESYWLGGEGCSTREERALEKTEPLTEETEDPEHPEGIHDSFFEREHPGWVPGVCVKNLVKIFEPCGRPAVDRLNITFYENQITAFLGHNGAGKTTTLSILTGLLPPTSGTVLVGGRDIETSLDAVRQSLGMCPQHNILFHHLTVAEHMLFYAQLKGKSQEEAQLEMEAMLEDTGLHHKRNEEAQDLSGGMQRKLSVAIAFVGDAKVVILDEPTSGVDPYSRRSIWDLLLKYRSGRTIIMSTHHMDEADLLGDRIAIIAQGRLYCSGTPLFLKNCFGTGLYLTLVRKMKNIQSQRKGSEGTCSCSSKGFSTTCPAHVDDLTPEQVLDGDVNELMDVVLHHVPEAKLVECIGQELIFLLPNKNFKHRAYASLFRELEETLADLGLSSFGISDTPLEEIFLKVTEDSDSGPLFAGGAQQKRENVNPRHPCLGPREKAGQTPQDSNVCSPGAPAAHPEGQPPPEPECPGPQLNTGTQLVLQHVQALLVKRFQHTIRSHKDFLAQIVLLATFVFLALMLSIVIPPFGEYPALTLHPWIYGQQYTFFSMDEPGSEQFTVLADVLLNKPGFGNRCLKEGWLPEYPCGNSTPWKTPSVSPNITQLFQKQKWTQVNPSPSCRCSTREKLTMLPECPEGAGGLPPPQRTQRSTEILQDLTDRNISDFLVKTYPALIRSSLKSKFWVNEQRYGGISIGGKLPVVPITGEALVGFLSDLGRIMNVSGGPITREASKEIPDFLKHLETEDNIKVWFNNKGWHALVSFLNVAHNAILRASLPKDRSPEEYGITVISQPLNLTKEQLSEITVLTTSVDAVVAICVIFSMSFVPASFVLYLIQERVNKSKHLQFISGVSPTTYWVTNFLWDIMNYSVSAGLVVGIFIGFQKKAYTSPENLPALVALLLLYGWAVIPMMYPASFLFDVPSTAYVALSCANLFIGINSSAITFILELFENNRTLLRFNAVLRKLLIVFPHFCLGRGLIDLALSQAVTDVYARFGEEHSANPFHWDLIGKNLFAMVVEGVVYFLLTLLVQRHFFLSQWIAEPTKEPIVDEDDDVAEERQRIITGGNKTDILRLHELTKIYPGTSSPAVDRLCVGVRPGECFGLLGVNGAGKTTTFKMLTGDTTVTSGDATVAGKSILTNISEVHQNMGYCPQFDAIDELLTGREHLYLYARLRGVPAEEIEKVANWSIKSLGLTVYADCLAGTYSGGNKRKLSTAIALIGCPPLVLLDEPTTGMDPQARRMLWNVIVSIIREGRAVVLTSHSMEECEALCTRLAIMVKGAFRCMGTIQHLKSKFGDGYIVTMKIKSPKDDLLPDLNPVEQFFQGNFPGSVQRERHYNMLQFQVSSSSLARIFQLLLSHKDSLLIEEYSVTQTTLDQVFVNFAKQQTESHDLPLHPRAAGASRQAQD
Experimental: Exemplary compounds were evaluated in an A4 correction dose-response assay.
To assess activity against ABCA4 P1380L, the compounds were screened in an assay measuring protein expression, using cells transfected with cDNA encoding HiBit-tagged ABCA4 P1380L. Here we describe an assay for measuring the expression of the P1380L variant of human ABCA4 (henceforth referred to as ABCA4 P1380L) and the use of this assay to measure the efficacy of compounds to increase the expression of ABCA4 P1380L. The assay was designed to characterize the efficacy and potency of compounds to increase the expression of ABCA4 P1380L by calculating an Emax and EC50 value. […] (5% CO2, humidified). […] After the four-hour incubation period, 60 nL of DMSO solutions are transferred to the assay plate.
as §1

Row | SMILES | pEC50 (ABCC6 WT) | pEC50 (ABCB4 WT) | pEC50 (ABCA4 P1380L)
1 | CCS(=O)(=O)N(C)c1ccc(-c2cncc(C#N)c2)nc1Oc1c(C)cc(C(F)(F)F)nc1C1CC1 [Compound I-148] | > 6.00 | > 6.00 | > 6.00
2 | Cc1nc(C(F)(F)F)nc(C2CC2)c1Oc1nc(-c2cncc(Cl)c2)ccc1N(C)S(C)(=O)=O [Compound I-149] | > 4.60 | ≤ 4.60 | < 4.60
3 | Cc1nc(C2CC2)nc(C2CC2)c1Oc1nc(-c2cncc(C#N)c2)ccc1NS(C)(=O)=O [Compound I-150] | > 6.00 | > 6.00 | > 6.00
4 | Cc1nc(C(F)(F)F)nc(C2CC2)c1Oc1nc(-c2cncc(Cl)c2)ccc1NS(C)(=O)=O [Compound I-151] | > 6.00 | > 6.00 | > 6.00
5 | CCS(=O)(=O)Nc1ccc(-c2cncc(C#N)c2)nc1Oc1c(C)cc(C(F)(F)F)nc1C1CC1 [Compound I-152] | > 6.00 | > 6.00 | > 6.00
6 | Cc1cc(C(F)(F)F)nc(C2CC2)c1Oc1nc(-c2cncc(Cl)c2)ccc1N(C)S(C)(=O)=O [Compound I-153] | 5.00 to 6.00 | ≤ 4.60 | < 4.60
7 | Cc1nc(C(F)(F)F)cc(C2CC2)c1Oc1nc(-c2cncc(C#N)c2)ccc1N(C)S(C)(=O)=O [Compound I-154] | > 4.60 | > 4.60 | > 4.60
8 | Cc1nc(C(F)(F)F)cc(C2CC2)c1Oc1nc(-c2cncc(C#N)c2)ccc1NS(C)(=O)=O [Compound I-155] | > 6.00 | > 6.00 | > 6.00
9 | Cc1cc(C(F)(F)F)nc(C2CC2)c1Oc1nc(-c2cncc(C#N)c2)ccc1N(C)S(C)(=O)=O [Compound I-156] | ≤ 4.60 | ≤ 4.60 | > 4.60
10 | Cc1nc(C)c(Oc2nc(-c3cncc(C#N)c3)ccc2N(C)S(C)(=O)=O)c(C2CC2)n1 [Compound I-157] | ≤ 4.60 | > 4.60 | < 4.60
11 | Cc1cc(C(F)(F)F)nc(C2CC2)c1Oc1nc(-c2cncc(Cl)c2)ccc1NS(C)(=O)=O [Compound I-158] | > 6.00 | > 6.00 | > 6.00
12 | Cc1nc(N2CC(C#N)C2)nc(C)c1Oc1nc(-c2cncc(C#N)c2)ccc1NS(C)(=O)=O [Compound I-159] | > 6.00 | > 6.00 | > 4.60
13 | Cc1nc(N2CC3(COC3)C2)nc(C)c1Oc1nc(-c2cncc(C#N)c2)ccc1NS(C)(=O)=O [Compound I-160] | 5.00 to 6.00 | > 4.60 | < 4.60
14 | Cc1cc(C2CC2)nc(C2CC2)c1Oc1nc(-c2cncc(C#N)c2)ccc1NS(C)(=O)=O [Compound I-161] | > 6.00 | > 6.00 | > 6.00
15 | Cc1nc(C2CC2)cc(C2CC2)c1Oc1nc(-c2cncc(C#N)c2)ccc1NS(C)(=O)=O [Compound I-162] | > 6.00 | ≤ 4.60 | > 6.00
16 | Cc1cc(C(F)(F)F)nc(C2CC2)c1Oc1nc(-c2cncc(C#N)c2)ccc1NS(C)(=O)=O [Compound I-163] | > 6.00 | > 6.00 | > 4.60

Row | SMILES | pEC50 (ABCC6 WT) | pEC50 (ABCB4 WT) | pEC50 (ABCA4 P1380L)
17 | Cc1nc(C)c(Oc2nc(-c3cncc(Cl)c3)ccc2NS(C)(=O)=O)c(C2CC2)n1 [Compound I-164] | > 4.60 | 5.00 to 6.00 | 5.00 to 6.00
18 | Cc1cc(C(F)(F)F)nc(C2CC2)c1Oc1nc(-c2cncc(C#N)c2)ccc1N=S(C)(C)=O [Compound I-286] | > 6.00 | ≤ 4.60 | < 4.60
19 | Cc1cc(C(F)(F)F)nc(C2CC2)c1Oc1nc(-c2cncc(C#N)c2)ccc1S(=N)(=O)C1CC1 (stereo not drawn) [Compound I-287] | ≤ 4.60 | > 4.60 | < 4.60
20 | Cc1cc(C(F)F)nc(C2CC2)c1Oc1nc(-c2cncc(C#N)c2)ccc1S(=O)(=O)NC1CC1 [Compound I-288] | > 6.00 | 5.00 to 6.00 | 5.00 to 6.00
21 | CNS(=O)(=O)c1ccc(-c2cncc(C#N)c2)nc1Oc1c(C)cc(C(F)F)nc1C1CC1 [Compound I-289] | > 6.00 | 4.60 to 5.00 | < 4.60
22 | Cc1cc(C(F)(F)F)nc(C2CC2)c1Oc1nc(-c2cncc(C#N)c2)ccc1S(=O)(=O)N1CCOCC1 [Compound I-290] | ≤ 4.60 | ≤ 4.60 | < 4.60
23 | Cc1cc(C(F)(F)F)nc(C2CC2)c1Oc1nc(-c2cncc(C#N)c2)ccc1S(=O)(=O)N(C)C [Compound I-291] | 5.00 to 6.00 | > 6.00 | > 4.60
24 | Cc1nc(C(F)(F)F)nc(C2CC2)c1Oc1nc(-c2cncc(C#N)c2)ccc1S(=O)(=O)NC1CC1 [Compound I-292] | > 6.00 | 5.00 to 6.00 | 5.00 to 6.00
25 | CNS(=O)(=O)c1ccc(-c2cncc(C#N)c2)nc1Oc1c(C)cc(C(F)(F)F)nc1C1CC1 [Compound I-293] | 5.00 to 6.00 | > 6.00 | > 4.60
26 | Cc1cc(C(F)(F)F)nc(C2CC2)c1Oc1nc(-c2cncc(C#N)c2)ccc1S(=O)(=O)Nc1cccnc1 [Compound I-294] | > 6.00 | 4.60 to 5.00 | > 4.60
27 | Cc1cc(C(F)(F)F)nc(C2CC2)c1Oc1nc(-c2cccc(C#N)c2)ccc1S(=N)(=O)C1CC1 (stereo not drawn) [Compound I-295] | > 6.00 | ≤ 4.60 | > 4.60
28 | Cc1cc(C(F)(F)F)nc(C2CC2)c1Oc1nc(-c2cncc(C#N)c2)ccc1S(=N)(=O)c1cccnn1 (stereo not drawn) [Compound I-296] | 5.00 to 6.00 | > 6.00 | > 6.00
29 | Cc1cc(C(F)(F)F)nc(C2CC2)c1Oc1nc(-c2cncc(C#N)c2)ccc1S(=N)(=O)c1cnccn1 (stereo not drawn) [Compound I-297] | 5.00 to 6.00 | 5.00 to 6.00 | 5.00 to 6.00
30 | CNS(=O)(=O)c1ccc(-c2cncc(C#N)c2)nc1Oc1c(C)cc(C2CC2)nc1C1CC1 [Compound I-298] | 5.00 to 6.00 | ≤ 4.60 | < 4.60
31 | Cc1sc(C2CC2)nc1Oc1nc(-c2cncc(C#N)c2)ccc1NS(C)(=O)=O [Compound I-299] | > 6.00 | > 6.00 | > 6.00
